Assay results reported in PMC12677607, “Identification of a Pair of Linear or Cyclic Naturally Inspired Bifunctional Lipopeptide Antibiotics That Overcome Antimicrobial Resistance” (Advanced Science, 2025).
Values after ≈ are worked out from the molar mass of the structure shown. Bridge positions count the residues as written; N and C are the ends. Square brackets hold non-standard residues; d marks the D form. Peptide text beside a SMILES is read from it. * marks the point of attachment. Myristoyl = CCCCCCCCCCCCCC(=O)*; Orn = NCCC[C@H](N)C(=O)O; Dab = NCC[C@H](N)C(=O)O; Dap = NC[C@H](N)C(=O)O

How the values were obtained:
S. aureus USA300 [1] = assay: Membrane depolarization assay (DiSC3(5)); type: cell-based; conditions: S. aureus USA300 in PBS, 4 × MIC, n = 2
Procedure: Bacterial membrane depolarization assay was performed in 384‐well black microtiter plates. Overnight cell cultures of S. aureus USA300 were collected and resuspended in PBS buffer to an OD600 of 0.5. Then, 100 µL of the diluted cell suspension and 50 µL of 20 µM DiSC3(5) dye were added to 300 µL of PBS buffer, which was incubated for 15 min at room temperature in the dark. 50 µL of 2 M KCl was then added and incubated for another 15 min. Fluorescence intensity was determined continually at 2 s intervals (Ex/Em 643/675 nm) using a Tecan spark multimode microplate reader. When the signal stabilized, the appropriate amount of aquicidine L or aquicidine C4 (6.4 mg mL^−1 in DMSO, 4 × MIC) was added. DMSO and daptomycin were used as negative and positive controls, respectively. Data were shown as the relative intensity with respect to the average fluorescence signal prior to the addition of each compound. All assays were performed two independent times (n = 2), and a representative fluorescence recording was presented.

E. coli DH5α = assay: Bactericidal effects / cell lysis in E. coli; type: cell-based; conditions: after 12 h at 16× MIC, Figure S123a
S. aureus USA300 [2] = assay: Membrane component feeding assay; type: cell-based; conditions: for inhibition of antibacterial activity by MK, UQ or PC: feeding 2 to 128 µg mL^−1, S. aureus USA300 (PC also E. coli DH5α), Figure S125
Procedure: The effects of bacterial membrane components on aquicidine L's or aquicidine C4's anti‐bacterial activities were evaluated using E. coli DH5α or S. aureus USA300. […] All experiments were done in triplicate (n = 3) and repeated two independent times (n = 2).

[3] = tested on: Candida albicans ATCC 64550; type: cell-based; conditions: ATCC 64550, 16 h
Procedure: (§1) All MIC assays were performed two independent times (n = 2) in 96‐well plates using a broth micro‐dilution method. The lowest concentration of that inhibited visible microbial growth was recorded as the MIC value.
(§2) For fungal strains, overnight cultures were diluted 2000‐fold in YPD broth. 100 µL of diluted cells was mixed with 100 µL of YPD broth containing each peptide ranging from […] 64 to 0.125 µg mL^−1 at 2‐fold serial dilutions.

[4] = tested on: Candida albicans ATCC 10231; assay: MIC assay (YPD broth); type: cell-based; conditions: Table S11; YPD broth, 30 °C, 16 h, n = 2
Procedure: as §1, §2

[5] = tested on: Staphylococcus aureus ATCC 25923; assay: microbe, parasite or virus in culture; type: cell-based; conditions: ATCC 25923, 16 h
How it was run: (§3)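 Broth micro-dilution in LB; overnight cultures diluted 5000-fold, mixed 1:1 with 2-fold peptide series from 64 to 0.125 µg mL^−1. MIC taken as lowest concentration with no visible growth; n = 2 independent runs.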

[6] = tested on: Vibrio alginolyticus XSBZ14; assay: microbe, parasite or virus in culture; type: cell-based; conditions: 16 h
How it was run: as §3

[7] = tested on: Staphylococcus aureus Newman; assay: microbe, parasite or virus in culture; type: cell-based; conditions: Newman, 16 h
How it was run: as §3

[8] = tested on: Staphylococcus aureus ATCC 6538; assay: microbe, parasite or virus in culture; type: cell-based; conditions: ATCC 6538, 16 h
How it was run: as §3

[9] = tested on: Pseudomonas aeruginosa ATCC 9027; assay: microbe, parasite or virus in culture; type: cell-based; conditions: ATCC 9027, 16 h
How it was run: as §3

[10] = tested on: Acinetobacter baumannii 1104008; assay: microbe, parasite or virus in culture; type: cell-based; conditions: Table S11; LB broth, 37 °C, 16 h, n = 2
How it was run: as §3

[11] = tested on: Salmonella enterica ATCC 14028; assay: microbe, parasite or virus in culture; type: cell-based; conditions: ATCC 14028, 16 h
How it was run: as §3

[12] = tested on: Acinetobacter baumannii ATCC 19606; assay: microbe, parasite or virus in culture; type: cell-based; conditions: ATCC 19606, 16 h
How it was run: as §3

[13] = tested on: Klebsiella pneumoniae CRKP HS11286; assay: microbe, parasite or virus in culture; type: cell-based; conditions: for MIC Klebsiella pneumoniae CRKP HS11286: CRKP HS11286, 16 h
How it was run: as §3

[14] = tested on: Enterococcus faecalis ATCC 29212; assay: microbe, parasite or virus in culture; type: cell-based; conditions: ATCC 29212, 16 h
How it was run: as §3

[15] = tested on: Salmonella typhimurium LXX; assay: microbe, parasite or virus in culture; type: cell-based; conditions: murium LXX, 16 h
How it was run: as §3

[16] = tested on: Enterococcus faecium 35682; assay: microbe, parasite or virus in culture; type: cell-based; conditions: Table S11; LB broth, 37 °C, 16 h, n = 2
How it was run: as §3

[17] = tested on: Staphylococcus aureus USA300; assay: microbe, parasite or virus in culture; type: cell-based; conditions: for MIC Staphylococcus aureus USA300: Table S11, LB broth, 37 °C, 16 h, n = 2
How it was run: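 Broth microdilution in LB, run in two independent repeats. Overnight cultures were diluted 5000-fold, except S. aureus at 10000-fold, and mixed with peptide-containing LB (2-fold series, 64 to 0.125 µg mL^−1 before mixing). MIC is the lowest concentration that prevented visible growth.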

[18] = tested on: Streptococcus pyogenes ATCC 19615; assay: microbe, parasite or virus in culture; type: cell-based; conditions: Table S11; LB broth, 37 °C, 16 h, n = 2
How it was run: as §3

[19] = tested on: Streptococcus mutans ATCC 25175; assay: microbe, parasite or virus in culture; type: cell-based; conditions: ATCC 25175, 16 h
How it was run: as §3

[20] = tested on: Klebsiella pneumoniae CRKP 5452; assay: microbe, parasite or virus in culture; type: cell-based; conditions: for MIC Klebsiella pneumoniae CRKP 5452: Table S11, LB broth, 37 °C, 16 h, n = 2
How it was run: as §3

[21] = tested on: Klebsiella pneumoniae NCTC 5056; assay: microbe, parasite or virus in culture; type: cell-based; conditions: NCTC 5056, 16 h
How it was run: as §3

[22] = tested on: Klebsiella pneumoniae ATCC 13883; assay: microbe, parasite or virus in culture; type: cell-based; conditions: ATCC 13883, 16 h
How it was run: as §3

Enterococcus faecalis 28 = assay: microbe, parasite or virus in culture; type: cell-based; conditions: 28, 16 h
How it was run: as §3

Enterococcus faecalis 26 = assay: microbe, parasite or virus in culture; type: cell-based; conditions: 26, 16 h
How it was run: as §3

[23] = tested on: Pseudomonas aeruginosa PAO1; assay: microbe, parasite or virus in culture; type: cell-based
How it was run: as §3

[24] = tested on: Acinetobacter baumannii ATCC 17978; assay: microbe, parasite or virus in culture; type: cell-based; conditions: ATCC 17978, 16 h
How it was run: as §3

Acute toxicity assay = type: in vivo, mouse; conditions: single dose 250 mg kg^−1 intraperitoneal, three mice, five days
Procedure: For acute toxicity assessment, three mice were given a single dose of aquicidine L or aquicidine C4 at 250 mg kg^−1 via intraperitoneal injection. Mice were observed twice daily for mortality and morbidity as well as for possible signs of acute toxicity. The experiment was totally monitored for five days.

Row | Compound | DiSC3(5) fluorescence (membrane depolarization) (S. aureus USA300 [1]) | cell lysis in E. coli (E. coli DH5α) | inhibition of antibacterial activity by MK, UQ or PC (S. aureus USA300 [2]) | MIC Candida albicans ATCC 64550 [3] [µg/mL] | MIC Candida albicans ATCC 10231 [4] [µg/mL] | MIC Staphylococcus aureus ATCC 25923 [5] [µg/mL] | MIC Vibrio alginolyticus XSBZ14 [6] [µg/mL] | MIC Staphylococcus aureus Newman [7] [µg/mL] | MIC Staphylococcus aureus ATCC 6538 [8] [µg/mL] | MIC Pseudomonas aeruginosa ATCC 9027 [9] [µg/mL] | MIC Acinetobacter baumannii 1104008 [10] [µg/mL] | MIC Salmonella enterica ATCC 14028 [11] [µg/mL] | MIC Acinetobacter baumannii ATCC 19606 [12] [µg/mL] | MIC Klebsiella pneumoniae CRKP HS11286 [13] [µg/mL] | MIC Enterococcus faecalis ATCC 29212 [14] [µg/mL] | MIC Salmonella typhimurium LXX [15] [µg/mL] | MIC Enterococcus faecium 35682 [16] [µg/mL] | MIC Staphylococcus aureus USA300 [17] [µg/mL] | MIC Streptococcus pyogenes ATCC 19615 [18] [µg/mL] | MIC Streptococcus mutans ATCC 25175 [19] [µg/mL] | other results
1 | CCCCCCCCCCCCCC(=O)N[C@@H](CN)C(=O)N[C@H](C(=O)N[C@@H](CC(C)C)C(=O)N[C@H]1COC(=O)[C@H](Cc2ccccc2)NC(=O)[C@H](CC(N)=O)NC(=O)[C@H](CCCN)NC(=O)[C@H]([C@@H](C)CC)NC(=O)[C@H](Cc2ccccc2)NC(=O)[C@H](CN)NC(=O)[C@H](CCN)NC1=O)[C@@H](C)O [synAQU5-C4] (Myristoyl-[Dap]TLS[Dab][Dap]FI[Orn]NF; ester 4-C) | significant increase | slightly led to cell lysis | did not show dose‐dependent inhibition | > 64 | > 64 | 4 (≈ 2.82 µM) | 32 (≈ 22.5 µM) | 4 (≈ 2.82 µM) | 4 (≈ 2.82 µM) | 16 (≈ 11.3 µM) | 16 (≈ 11.3 µM) | 32 (≈ 22.5 µM) | 32 (≈ 22.5 µM) | 32 (≈ 22.5 µM) | 4 (≈ 2.82 µM) | 32 (≈ 22.5 µM) | 4 (≈ 2.82 µM) | 4 (≈ 2.82 µM) | 2 (≈ 1.41 µM) | 4 (≈ 2.82 µM) | inhibition of antibacterial activity by CL and PG (S. aureus USA300 [2]; feeding 2 to 128 µg mL^−1, S. aureus USA300, Figure 5d): stronger dose‐dependent inhibition; antibacterial activity (MIC) S. aureus USA300 ([17]; Figure S127b, wild type): 4 µg/mL; MIC Klebsiella pneumoniae CRKP 5452 [20]: 32 µg/mL (≈ 22.5 µM); MIC Klebsiella pneumoniae NCTC 5056 [21]: > 64 µg/mL; MIC Klebsiella pneumoniae ATCC 13883 [22]: > 64 µg/mL; MIC Enterococcus faecalis 28 (Enterococcus faecalis 28): 4 µg/mL (≈ 2.82 µM); MIC Enterococcus faecalis 26 (Enterococcus faecalis 26): 2 µg/mL (≈ 1.41 µM); MIC Pseudomonas aeruginosa PAO1 ([23]; PAO1, 16 h): 32 µg/mL (≈ 22.5 µM); MIC Acinetobacter baumannii ATCC 17978 [24]: 32 µg/mL (≈ 22.5 µM); acute toxicity in mouse (Acute toxicity assay): no obvious acute toxicities
2 | CCCCCCCCCCCCCC(=O)N[C@@H](CN)C(=O)N[C@H](C(=O)N[C@@H](CC(C)C)C(=O)N[C@@H](CO)C(=O)N[C@@H](CCN)C(=O)N[C@@H](CN)C(=O)N[C@@H](Cc1ccccc1)C(=O)N[C@H](C(=O)N[C@@H](CCCN)C(=O)N[C@@H](CC(N)=O)C(=O)N[C@@H](Cc1ccccc1)C(=O)O)[C@@H](C)CC)[C@@H](C)O [synAQU5-L] (Myristoyl-[Dap]TLS[Dab][Dap]FI[Orn]NF-OH) | not aquicidine L caused a significant increase | significantly led to cell lysis | did not show dose‐dependent inhibition | > 64 | > 64 | 32 (≈ 22.3 µM) | 8 (≈ 5.56 µM) | 32 (≈ 22.3 µM) | 16 (≈ 11.1 µM) | 4 (≈ 2.78 µM) | 4 (≈ 2.78 µM) | 4 (≈ 2.78 µM) | 8 (≈ 5.56 µM) | 4 (≈ 2.78 µM) | 32 (≈ 22.3 µM) | 8 (≈ 5.56 µM) | 16 (≈ 11.1 µM) | 16 (≈ 11.1 µM) | 8 (≈ 5.56 µM) | 16 (≈ 11.1 µM) | antibacterial activity (MIC) K. pneumoniae CRKP HS11286 ([13]; Figure S127a): 4 µg/mL; antibacterial activity (MIC) K. pneumoniae CRKP 5452 ([20]; Figure S127a, wild type): 4 µg/mL; MIC Klebsiella pneumoniae CRKP 5452 [20]: 4 µg/mL (≈ 2.78 µM); MIC Klebsiella pneumoniae NCTC 5056 [21]: 8 µg/mL (≈ 5.56 µM); MIC Klebsiella pneumoniae ATCC 13883 [22]: 8 µg/mL (≈ 5.56 µM); MIC Enterococcus faecalis 28 (Enterococcus faecalis 28): 16 µg/mL (≈ 11.1 µM); MIC Enterococcus faecalis 26 (Enterococcus faecalis 26): 8 µg/mL (≈ 5.56 µM); MIC Pseudomonas aeruginosa PAO1 ([23]; Table S11, LB broth, 37 °C, 16 h, n = 2): 4 µg/mL (≈ 2.78 µM); MIC Acinetobacter baumannii ATCC 17978 [24]: 4 µg/mL (≈ 2.78 µM); acute toxicity in mouse (Acute toxicity assay): no obvious acute toxicities
